Source: ChEMBL document CHEMBL1124222 (J Med Chem, 1988)

target: T1, D(2) dopamine receptor (Rattus norvegicus, UniProt P61169); assay: Inhibitory constant against binding of [125I]- IBZM to rat striatal membrane; parameters: species or system Striatum
T1 sequence (P61169 whole entry): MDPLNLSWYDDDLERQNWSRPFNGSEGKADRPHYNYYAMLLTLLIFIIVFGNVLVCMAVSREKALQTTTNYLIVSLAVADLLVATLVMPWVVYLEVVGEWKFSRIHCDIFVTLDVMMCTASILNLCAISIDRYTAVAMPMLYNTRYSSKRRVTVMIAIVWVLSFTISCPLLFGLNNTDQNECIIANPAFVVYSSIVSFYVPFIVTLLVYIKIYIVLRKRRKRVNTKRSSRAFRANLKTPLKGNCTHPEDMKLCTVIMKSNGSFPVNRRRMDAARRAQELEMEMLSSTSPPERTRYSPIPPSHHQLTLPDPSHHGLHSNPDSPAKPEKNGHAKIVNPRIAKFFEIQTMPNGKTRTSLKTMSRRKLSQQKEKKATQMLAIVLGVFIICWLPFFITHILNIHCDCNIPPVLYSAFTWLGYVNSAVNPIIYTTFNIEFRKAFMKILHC

SMILES | Ki [nM]
CCN1CCC[C@H]1CNC(=O)c1c(OC)ccc(I)c1O [IOLOPRIDE] | 0.633
CCN1CCC[C@H]1CNC(=O)c1c(O)cccc1OC | 31.1
CCN1CCC[C@@H]1CNC(=O)c1c(OC)ccc(I)c1O | 30.3
O=C(c1ccc(F)cc1)C1CCN(CCn2c(=O)[nH]c3ccccc3c2=O)CC1 [KETANSERIN] | 359

target: T1, D(2) dopamine receptor; assay: Affinity constant of compound was evaluated in rat striatum tissue preparation.; assay type: tissue-based

SMILES | Ki [nM]
CCN1CCCC1CNC(=O)c1c(OC)ccc(I)c1O (stereo unspecified) | 0.43
CCN1CCC[C@H]1CNC(=O)c1c(O)cccc1OC | 31.1
